This note sets out measurements from the supplement of paper PMC5908809.

For orientation: relative IC50 means the concentration at the midpoint between the plateaus of the fitted inhibition curve.

Holding throughout (experiment): relative IC50 (inflection point of fitted viability curve, relative to fitted max inhibition); higher = less sensitive
What all share (conditions): 72 h

Test [1] has as its system DERL-7 (IL-2 2.5 ng/mL). The protocol: (§1)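 Drug sensitivity and resistance testing: 5 concentrations over a 10,000-fold range, 72 h at 37 °C, viability by CellTiter-Glo normalised to DMSO and benzethonium chloride controls. IC50 is the inflection point of a logistic fit (min fixed at 0, max fitted), so it is relative to the fitted maximal inhibition. Kept only where fitted max inhibition is at least 50%.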

Test [2] deals with IMC-1 (IL-2 20 ng/mL). How it is done: as §1
The subject of test [3] is KAI3 (IL-2 2.5 ng/mL). How it is done: as §1
Test [4] has as its system KHYG-1 (IL-2 2.5 ng/mL). The protocol: as §1
The subject of test [5] is NK-92 (IL-2 2.5 ng/mL). The protocol:
as §1

Test [6] has as its system NK-YS (IL-2 2.5 ng/mL). How it is done:
as §1

Test [7] concerns NKL (IL-2 2.5 ng/mL). How it is done: as §1
Test [8] has as its system SNK-6 (IL-2 2.5 ng/mL). How it is done:
as §1

Test [9] relates to YT (IL-2 2.5 ng/mL). The protocol:
as §1

Test [10] relates to normal primary NK cells, pool 1 (3 donors) (IL-2 2.5 ng/mL). The protocol: as §1
The subject of test [11] is normal primary NK cells, pool 1 (3 donors), resting (IL-2 0 ng/mL). The protocol: as §1
The subject of test [12] is normal primary NK cells, pool 2 (3 donors) (IL-2 2.5 ng/mL). How it is done: as §1
The test system of test [13] is normal primary NK cells, pool 3 (3 donors) (IL-2 2.5 ng/mL). How it is done:
as §1

`CC(=O)OC[C@H]1O[C@@H]([S-])[C@H](OC(C)=O)[C@@H](OC(C)=O)[C@@H]1OC(C)=O.CCP(CC)CC.[Au+]` [Auranofin]: the “relative IC50” value in test [1] came to 274 nM; in [2] it was 761 nM; in test [3], 859 nM; in [4], 507 nM; in [5], 791 nM; in test [6], 551 nM. Further, the “relative IC50” value in test [7] came to 241 nM; in [8], 319 nM; in [9] it was 824 nM; in test [10] it was 53.6 nM; in test [11] it was 26.1 nM; in test [12], 102 nM. Also, the “relative IC50” value in [13] is 78.4 nM.

For `O=C(CCCCCCNC(=O)c1cnc(N(c2ccccc2)c2ccccc2)nc1)NO` [Rocilinostat], the “relative IC50” value in [1] came to 1990 nM; in test [2], 2490 nM; in test [3], 823 nM; in test [4], 1050 nM; in test [5] it was 1210 nM; in test [6] it was 1620 nM. Further, the “relative IC50” value in test [7] was determined as 814 nM; in test [8] it was 1350 nM; in [9] it was 1810 nM; in [10], 1100 nM; in [11], 485 nM; in test [12], 1550 nM. In test [13], the “relative IC50” value is 2470 nM.

In the case of `c1ccc(Cn2c(-c3ccc(OC[C@H](C4CCNCC4)n4c(-c5ccccc5)nc5ccccc54)cc3)nc3ccccc32)cc1` [deltarasin], the “relative IC50” value turned out to be 1950 nM in [1]; 3560 nM in [2]; 1770 nM in [3]; 2850 nM in [4]; 1830 nM in test [5]; 2410 nM in test [6]. Further, the “relative IC50” value worked out at 2110 nM in [7]; 3290 nM in [8]; 2630 nM in [9]; 2880 nM in [10]; 1640 nM in test [11]; 2270 nM in test [12]. In addition, the “relative IC50” value in test [13] was determined as 2910 nM.

Regarding `Cc1ccc(-n2nc(C(C)(C)C)cc2NC(=O)Nc2ccc(OCCN3CCOCC3)c3ccccc23)cc1` [Doramapimod], the “relative IC50” value in test [3] turned out to be 362 nM; in test [4], 2140 nM; in test [5], 1910 nM; in test [6], 1300 nM; in test [7] it was 370 nM; in test [10], 3690 nM. Besides, the “relative IC50” value in test [11] is 2920 nM; in [12], 3230 nM; in test [13], 2980 nM.

For the compound `CN(C)CCN1C(=O)c2cccc3cc(N)cc(c23)C1=O` [Amonafide], the “relative IC50” value was determined as 1760 nM in test [1]; 1940 nM in test [2]; 1280 nM in test [3]; 1970 nM in test [4]; 1400 nM in test [5]; 1380 nM in [6]. Besides, the “relative IC50” value in [7] was found to be 1240 nM; in test [8] it was 1700 nM; in test [9], 2140 nM; in test [10], 3500 nM; in test [11], 2250 nM; in test [12] it was 2650 nM. Further, the “relative IC50” value in [13] was determined as 2410 nM.

`CC/C(=C(\c1ccc(O)cc1)c1ccc(OCCN(C)C)cc1)c1ccccc1` [4-hydroxytamoxifen]: the “relative IC50” value in test [1] was 1690 nM; in [2], 2130 nM; in test [3] it was 2640 nM; in test [4], 1290 nM; in [5], 2850 nM; in test [6], 2250 nM. Besides, the “relative IC50” value in test [7] was determined as 2700 nM; in test [8] it was 3890 nM; in [9], 2330 nM; in [10], 3340 nM; in test [11] it was 3750 nM; in test [12], 2700 nM.

Consider `C[C@@H]1C[C@H]2[C@@H]3CCC4=CC(=O)C=C[C@]4(C)[C@@]3(F)[C@@H](O)C[C@]2(C)[C@@]1(O)C(=O)CO` [Dexamethasone], for which the “relative IC50” value in test [1] was 8.07 nM; in test [2] it was greater than 10000 nM; in [4], 89.3 nM; in test [7], 7.41 nM; in [10], 14.1 nM; in test [11] it was 4.64 nM. In addition, the “relative IC50” value in [12] amounted to 11.8 nM; in test [13] it was 28.8 nM.

As for `CN[C@@H](C)C(=O)N[C@H]1CN(C(=O)CC(C)C)CC[C@H]2CC[C@@H](C(=O)NC(c3ccccc3)c3ccccc3)N2C1=O` [AT-406], the “relative IC50” value in test [3] came out at 1920 nM; in test [4], 1450 nM; in test [10], 1230 nM; in test [11], 1250 nM; in test [12], 1410 nM; in test [13] it was 1690 nM.
